From patent publication US20260285866A1, “MODULATORS OF TRPML, THEIR COMPOSITIONS AND METHODS OF USE” (Caraway Therapeutics, Inc., priority 2024, published 2026)

Legend:
Assay type in all cases: cell-based
Human TRPML1 = Human TRPML1 (Homo sapiens, UniProt Q9GZU1, L15A/L16A/L577A/L578A); experiment: Fluorescent TRPML1 assay (Fluo4-AM, HEK-293 Trex cells expressing hTRPML1); conditions: fluorescent calcium assay, doxycycline-induced hTRPML1
Procedure, shortened: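 Doxycycline-induced (0.5 μg/mL) HEK-293 Trex cells stably expressing surface-targeted mutant hTRPML1, loaded with 1 μM Fluo4-AM, then suspended in modified Ringer's with 10 mM calcium and added to compounds (20 μM to 6 nM final, half-log steps, triplicate). Fluorescence read at ex 480/em 540; percent activity versus plate controls, EC50 by non-linear regression.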

Human TRPML2 = target: T1, Human TRPML2 (Homo sapiens, UniProt Q8IZK6); experiment: Fluorescent TRPML2 assay (as for TRPML1); conditions: fluorescent calcium assay as for TRPML1, TRPML2 subtype
T1 construct: expressed in transfected cells
T1 sequence (Q8IZK6 1-566): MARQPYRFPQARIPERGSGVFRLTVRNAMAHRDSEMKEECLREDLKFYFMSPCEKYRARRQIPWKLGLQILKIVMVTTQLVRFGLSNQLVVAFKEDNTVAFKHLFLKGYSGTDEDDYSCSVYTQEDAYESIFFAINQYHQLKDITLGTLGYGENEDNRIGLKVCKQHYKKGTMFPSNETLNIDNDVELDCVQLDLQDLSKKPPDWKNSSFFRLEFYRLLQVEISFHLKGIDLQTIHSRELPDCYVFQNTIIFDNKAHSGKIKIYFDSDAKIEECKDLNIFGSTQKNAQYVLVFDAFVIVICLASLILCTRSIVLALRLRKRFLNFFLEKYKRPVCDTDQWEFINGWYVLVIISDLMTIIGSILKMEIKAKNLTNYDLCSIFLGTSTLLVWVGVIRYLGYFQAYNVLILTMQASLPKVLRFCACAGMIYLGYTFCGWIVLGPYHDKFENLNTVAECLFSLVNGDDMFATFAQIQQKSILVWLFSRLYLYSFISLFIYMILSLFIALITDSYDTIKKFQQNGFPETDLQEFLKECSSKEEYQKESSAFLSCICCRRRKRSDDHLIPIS
Protocol: HEK-293 Trex cells were stably transfected with a construct consisting of the human coding sequence for TRPML1 cloned into the tet-inducible plasmid pCDNA5 T/O. Mutations were introduced into the TRPML1 sequence to facilitate expression on the cell surface (Silvia Vergarajauregui, Rosa Puertollano Traffic. 2006 March; 7(3): 337-353). Briefly, the cells are cultured in 150 mm round tissue culture dishes containing 20 mL of media. The day before the assay the cells are rinsed with DPBS-Ca-Mg and then treated briefly with Trypsin-EDTA. The Trypsin-EDTA is diluted with growth media, and cells are counted. 38×10^6 cells are re-plated into 150 mm round tissue culture dishes in media containing 0.5 μg/mL doxycycline to induce expression of hTRPML1.
The day of the experiment cells are lifted from the plates as above and collected by centrifugation. The cells are then suspended in dye loading buffer consisting of Ringer's solution supplemented with 0.1% Pluronic Acid and 1 micromolar Fluo4-AM dye. Cells are loaded for ~60 minutes in the dark with occasional mixing. The cells are collected by centrifugation, the loading media aspirated, and the cells resuspended in 25 mL Ringer's solution and incubated ~60 minutes in the dark. The cells are again collected by centrifugation, rinsed in Ringer's Solution and resuspended to 0.2×10^6 cells/mL in modified Ringer's solution containing 10 mM calcium.
Compounds are dissolved to a concentration of 10 millimolar with DMSO. Compound plates are created by dispensing compounds into 384 well black wall clear bottom plates (Greiner 781091). Positive and negative controls are included on each plate. Typically, different amounts of each compound are tested ranging from 100 nanoMoles (20 micromolar final concentration) decreasing in half-log steps to 31 picoMoles (6 nanomolar final concentration). Each concentration is typically tested in triplicate.
50 microliters of dye-loaded cells are dispensed into each well of the compound assay plate created above. The fluorescence in each well is then determined with an excitation wavelength of 480 nm and an emission wavelength of 540 nm using either a Molecular Devices SpectraMax multimode plate reader or a Hamamatsu FDSS/uCell plate imager.
The resulting fluorescence for each well is exported as an ascii file and loaded into our LIMS for analysis. The percent activity of each compound at each concentration is determined by comparison to the positive and negative control wells included in each plate.
Assays for TRPML2 and TRPML3 were performed as above for TRPML1, by substituting the appropriate TRPML2 or TRPML3 subtype for the TRPML1.
EC50 values were calculated using a non-linear regression of Prism. In the table, “A” indicates an EC50 of less than 100 nM, “B” indicates an EC50 range from 100 nM to 500 nM: “C” indicates an EC50 range from 500 nM to 2 μM; and “D” indicates an EC50 greater than 2 μM.

Human TRPML3 = target: T2, Human TRPML3 (Homo sapiens, UniProt Q8TDD5); experiment: Fluorescent TRPML3 assay (as for TRPML1); conditions: fluorescent calcium assay as for TRPML1, TRPML3 subtype
T2 construct: expressed in transfected cells
T2 sequence (Q8TDD5 1-553): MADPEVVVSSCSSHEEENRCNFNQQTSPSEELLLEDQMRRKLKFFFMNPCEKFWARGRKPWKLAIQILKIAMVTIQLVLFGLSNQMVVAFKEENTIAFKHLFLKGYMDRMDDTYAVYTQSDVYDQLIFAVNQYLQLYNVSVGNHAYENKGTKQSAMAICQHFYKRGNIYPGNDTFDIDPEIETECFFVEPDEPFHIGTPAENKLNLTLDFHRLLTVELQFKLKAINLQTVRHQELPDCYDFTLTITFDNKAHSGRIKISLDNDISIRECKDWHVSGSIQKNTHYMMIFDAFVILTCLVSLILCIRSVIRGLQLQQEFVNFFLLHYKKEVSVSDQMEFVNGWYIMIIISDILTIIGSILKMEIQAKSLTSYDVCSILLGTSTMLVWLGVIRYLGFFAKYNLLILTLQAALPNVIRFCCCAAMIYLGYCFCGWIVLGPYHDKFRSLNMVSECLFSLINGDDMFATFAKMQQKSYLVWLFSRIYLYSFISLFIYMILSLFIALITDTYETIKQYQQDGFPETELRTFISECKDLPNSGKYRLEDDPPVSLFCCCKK
Procedure, shortened: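 Tet-inducible HEK-293 Trex cells expressing human TRPML2 or TRPML3, induced overnight with 0.5 μg/mL doxycycline, loaded with 1 μM Fluo4-AM and suspended in Ringer's solution with 10 mM calcium. Compounds tested in triplicate from 20 μM to 6 nM final in half-log steps; fluorescence at 480/540 nm. EC50 by non-linear regression, binned A–D.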

Sequence of Human TRPML1 (Q9GZU1 whole entry L15A/L16A/L577A/L578A): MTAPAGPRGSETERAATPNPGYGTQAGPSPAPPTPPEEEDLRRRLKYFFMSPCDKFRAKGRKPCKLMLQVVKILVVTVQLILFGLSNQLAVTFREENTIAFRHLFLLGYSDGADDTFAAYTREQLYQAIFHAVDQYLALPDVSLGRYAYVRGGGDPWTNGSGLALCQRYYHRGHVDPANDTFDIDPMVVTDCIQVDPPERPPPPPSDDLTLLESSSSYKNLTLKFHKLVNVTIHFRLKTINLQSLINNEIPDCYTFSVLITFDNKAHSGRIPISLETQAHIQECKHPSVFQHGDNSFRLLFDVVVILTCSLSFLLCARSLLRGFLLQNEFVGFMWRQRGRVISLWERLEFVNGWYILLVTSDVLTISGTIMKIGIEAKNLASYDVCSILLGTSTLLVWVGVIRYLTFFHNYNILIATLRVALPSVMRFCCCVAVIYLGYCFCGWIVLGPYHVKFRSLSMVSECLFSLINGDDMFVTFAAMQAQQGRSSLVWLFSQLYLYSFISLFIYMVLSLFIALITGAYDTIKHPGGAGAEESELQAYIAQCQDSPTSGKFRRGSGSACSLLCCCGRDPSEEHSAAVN

Compound	EC50 (Human TRPML1)	EC50 (Human TRPML2)	EC50 (Human TRPML3)
C[C@@H]1CN(c2ncnc3c2c(-c2ccccc2F)cn3-c2cc(C#N)ccn2)[C@@H](C)CN1C(=O)CC(C)(C)O [Compound 158, 2-(5-(2-fluorophenyl)-4-((2S,5R)-4-(3-hydroxy-3-methylbutanoyl)-2,5-dimethylpiperazin-1-yl)-7H-pyrrolo[2,3-d]pyrimidin-7-yl)isonicotinonitrile]	100 to 500 nM	> 2000 nM	< 100 nM
C[C@@H]1CN(c2ncnc3c2c(-c2ccccc2)cn3-c2cc(C#N)ccn2)[C@@H](C)CN1C(=O)CC(O)(C(F)(F)F)C(F)(F)F [Compound 161, 2-(4-((2S,5R)-2,5-dimethyl-4-(4,4,4-trifluoro-3-hydroxy-3-(trifluoromethyl)butanoyl)piperazin-1-yl)-5-phenyl-7H-pyrrolo[2,3-d]pyrimidin-7-yl)isonicotinonitrile]	100 to 500 nM	500 to 2000 nM	< 100 nM
C[C@@H]1CN(c2ncnc3c2c(-n2cccn2)cn3-c2cc(C#N)ccn2)[C@@H](C)CN1C(=O)C(C)(C)O [Compound 133, 2-(4-((2S,5R)-4-(2-hydroxy-2-methylpropanoyl)-2,5-dimethylpiperazin-1-yl)-5-(1H-pyrazol-1-yl)-7H-pyrrolo[2,3-d]pyrimidin-7-yl)isonicotinonitrile]	500 to 2000 nM	> 2000 nM	500 to 2000 nM
C[C@@H]1CN(c2ncnc3c2c(-c2ccncc2)cn3-c2cccc(OC(F)(F)F)c2)[C@@H](C)CN1C(=O)C(C)(C)O [Compound 148, 1-((2R,5S)-2,5-dimethyl-4-(5-(pyridin-4-yl)-7-(3-(trifluoromethoxy)phenyl)-7H-pyrrolo[2,3-d]pyrimidin-4-yl)piperazin-1-yl)-2-hydroxy-2-methylpropan-1-one]	500 to 2000 nM	> 2000 nM	> 2000 nM
C[C@@H]1CN(c2ncnc3c2c(-c2ccncc2)cn3-c2cccc(C#N)c2)[C@@H](C)CN1C(=O)C(C)(C)O [Compound 135, 3-(4-((2S,5R)-4-(2-hydroxy-2-methylpropanoyl)-2,5-dimethylpiperazin-1-yl)-5-(pyridin-4-yl)-7H-pyrrolo[2,3-d]pyrimidin-7-yl)benzonitrile]	500 to 2000 nM	> 2000 nM	> 2000 nM
CCOC(C)(C)C(=O)N1C[C@H](C)N(c2ncnc3c2c(-c2ccncc2)cn3-c2cc(C#N)ccn2)C[C@H]1C [Compound 171, -(4-((2S,5R)-4-(2-ethoxy-2-methylpropanoyl)-2,5-dimethylpiperazin-1-yl)-5-(pyridin-4-yl)-7H-pyrrolo[2,3-d]pyrimidin-7-yl)isonicotinonitrile]	100 to 500 nM	> 2000 nM	500 to 2000 nM

Next, values leading:

EC50 (Human TRPML1)	EC50 (Human TRPML2)	EC50 (Human TRPML3)	Compound
< 100 nM	500 to 2000 nM	500 to 2000 nM	CCOC(C)(C)C(=O)N1C[C@H](C)N(c2ncnc3c2c(C2CC2)cn3-c2cc(C#N)ccn2)C[C@H]1C [Compound 172, 2-(5-cyclopropyl-4-((2S,5R)-4-(2-ethoxy-2-methylpropanoyl)-2,5-dimethylpiperazin-1-yl)-7H-pyrrolo[2,3-d]pyrimidin-7-yl)isonicotinonitrile]
< 100 nM	500 to 2000 nM	100 to 500 nM	CCC(O)(CC)C(=O)N1C[C@H](C)N(c2ncnc3c2c(-c2ccccc2)cn3-c2cc(C#N)ccn2)C[C@H]1C [Compound 108, 2-(4-((2S,5R)-4-(2-ethyl-2-hydroxybutanoyl)-2,5-dimethylpiperazin-1-yl)-5-phenyl-7H-pyrrolo[2,3-d]pyrimidin-7-yl)isonicotinonitrile]
< 100 nM	> 2000 nM	< 100 nM	COC1(C(=O)N2C[C@H](C)N(c3ncnc4c3c(-c3ccccc3F)cn4-c3cc(C#N)ccn3)C[C@H]2C)CN(C)C1 [Compound 163, 2-(5-(2-fluorophenyl)-4-((2S,5R)-4-(3-methoxy-1-methylazetidine-3-carbonyl)-2,5-dimethylpiperazin-1-yl)-7H-pyrrolo[2,3-d]pyrimidin-7-yl)isonicotinonitrile]
< 100 nM	500 to 2000 nM	100 to 500 nM	CCOC(C)(C)C(=O)N1C[C@H](C)N(c2ncnc3c2c(N2CCC2)cn3-c2cc(C#N)ccn2)C[C@H]1C [Compound 173]
< 100 nM	< 100 nM	< 100 nM	C[C@@H]1CN(c2ncnc3c2c(-c2ccccc2F)cn3-c2cc(C#N)ccn2)[C@@H](C)CN1C(=O)C(C)(C)OCC(F)(F)F [Compound 165, 2-(4-((2S,5R)-2,5-dimethyl-4-(2-methyl-2-(2,2,2-trifluoroethoxy)propanoyl)piperazin-1-yl)-5-(2-fluorophenyl)-7H-pyrrolo[2,3-d]pyrimidin-7-yl)isonicotinonitrile]
< 100 nM	500 to 2000 nM	100 to 500 nM	C[C@@H]1CN(c2ncnc3c2c(-c2ccccc2)cn3-c2cc(C#N)ccn2)[C@@H](C)CN1C(=O)CC(C)(C)O [Compound 159, 2-(4-((2S,5R)-4-(3-hydroxy-3-methylbutanoyl)-2,5-dimethylpiperazin-1-yl)-5-phenyl-7H-pyrrolo[2,3-d]pyrimidin-7-yl)isonicotinonitrile]
< 100 nM	500 to 2000 nM	< 100 nM	COC1(C(=O)N2C[C@H](C)N(c3ncnc4c3c(-c3ccccc3F)cn4-c3cc(C#N)ccn3)C[C@H]2C)COC1 [Compound 166, 2-(5-(2-fluorophenyl)-4-((2S,5R)-4-(3-methoxyoxetane-3-carbonyl)-2,5-dimethylpiperazin-1-yl)-7H-pyrrolo[2,3-d]pyrimidin-7-yl)isonicotinonitrile]
< 100 nM	500 to 2000 nM	100 to 500 nM	C[C@@H]1CN(c2ncnc3c2c(-c2ccncc2)cn3-c2cc(C#N)ccn2)[C@@H](C)CN1C(=O)C1(O)CCCCC1 [Compound 151, 2-(4-((2S,5R)-4-(1-hydroxycyclohexane-1-carbonyl)-2,5-dimethylpiperazin-1-yl)-5-(pyridin-4-yl)-7H-pyrrolo[2,3-d]pyrimidin-7-yl)isonicotinonitrile]
